Calls of active or inactive are those of the source. The calls are words filed in the database; no cut-off is given here.
Tests used:
[1] = biological target: Genome polyprotein (Coxsackievirus B3 (strain Nancy)) (UniProt P03313); assay: Inhibition of His-6-tagged Coxsackievirus B3 3C protease expressed in Escherichia coli BL21(DE3) using Asp-Glu-EDANS-(5-((2-aminoethyl)amino)naphthalene-1-sulfonic acid)-MSAIFQGPISK-DABCYL (4-((4-(dimethylamino)phenyl)azo)benzoic acid) as peptide substrate at 100 uM by fluorescence-based […] assay
[2] = biological target: Neuraminidase (Influenza A virus, UniProt Q194T1); assay: Inhibition of Influenza A virus (A/RI/5+/1957(H2N2)) recombinant neuraminidase using MUNANA as substrate after 30 mins
[3] = biological target: Genome polyprotein (Coxsackievirus B3 (strain Nancy), UniProt P03313); assay: Inhibition of His-6-tagged Coxsackievirus B3 3C protease expressed in Escherichia coli BL21(DE3) using Asp-Glu-EDANS-(5-((2-aminoethyl)amino)naphthalene-1-sulfonic acid)-MSAIFQGPISK-DABCYL (4-((4-(dimethylamino)phenyl)azo)benzoic acid) as peptide substrate by fluorescence-based […] assay
[4] = system: HepG2; assay: Cytotoxicity against human HepG2 cells assessed as cell viability after 48 hrs by MTT assay; format: cell-based; conditions: HepG2, 48 h
[5] = system: HeLa; assay: Cytotoxicity against human HeLa cells assessed as cell viability after 48 hrs by MTT assay; format: cell-based

SMILES | inhibition [1] | further results
O=C(OC(=O)c1ccc(O)c(O)c1)c1ccc(O)c(O)c1 | inactive | 
COc1cc(O)c(C(=O)c2ccc(O)cc2)c(O)c1[C@@H]1O[C@H](CO)[C@@H](O)[C@H](O)[C@H]1O | 17.5% | 
COc1cc(O)c(C(=O)c2ccc(O)cc2)c(O)c1[C@@H]1O[C@H](CO)[C@@H](O)[C@H](O)[C@H]1OC(=O)c1cc(O)c(O)c(O)c1 | 53.8% | 
COc1cc2oc3cc(O)c(O)cc3c(=O)c2c(O)c1[C@@H]1O[C@H](CO)[C@@H](O)[C@H](O)[C@H]1O | 13.3% | 
O=c1c2cc(O)c(O)cc2oc2c(-c3c(O)c([C@@H]4O[C@H](CO)[C@@H](O)[C@H](O)[C@H]4O)c(O)c4c(=O)c5cc(O)c(O)cc5oc34)c(O)c([C@@H]3O[C@H](CO)[C@@H](O)[C@H](O)[C@H]3O)c(O)c12 | 46.1% | 
O=C(O)c1cc(O)c(O)c(O)c1 | inactive | 
COc1cc(O)c(C(=O)c2ccc(O)cc2)c(O)c1[C@@H]1O[C@H](CO)[C@@H](O)[C@H](O)[C@H]1OC(=O)c1ccc(O)cc1 | 27.2% | 
CO[C@@H]([C@@H]1OC(C(=O)O)=C[C@H](NC(=N)N)[C@H]1NC(C)=O)[C@H](O)CO |  | IC50 [2]: 3.1 µM
CCOC(=O)C1=C[C@@H](OC(CC)CC)[C@H](NC(C)=O)[C@@H](N)C1 [OSELTAMIVIR PHOSPHATE] |  | IC50 [2]: 0.8 µM
COc1cc(O)c(C(=O)c2ccc(O)cc2)c(O[C@@H]2O[C@H](CO)[C@@H](O)[C@H](O)[C@H]2O)c1 | inactive | 
O=C(O[C@@H]1C[C@](O)(C(=O)O)C[C@@H](O)[C@H]1O)c1cc(O)c(O)c(O)c1 | 29.8% | 
O=C(OC[C@H]1O[C@@H](OC(=O)c2cc(O)c(O)c(O)c2)[C@H](OC(=O)c2cc(O)c(O)c(O)c2)[C@@H](OC(=O)c2cc(O)c(O)c(O)c2)[C@@H]1OC(=O)c1cc(O)c(O)c(O)c1)c1cc(O)c(O)c(O)c1 [PENTAGALLOYL GLUCOSE] | 100% | IC50 [2]: 11.9 µM; IC50 [3]: 1.1 µM; IC50 [4]: 92.4 µM; IC50 [5]: 356 µM
O=C(OC[C@H]1O[C@@H](O)[C@H](OC(=O)c2cc(O)c(O)c(O)c2)[C@@H](OC(=O)c2cc(O)c(O)c(O)c2)[C@@H]1OC(=O)c1cc(O)c(O)c(O)c1)c1cc(O)c(O)c(O)c1 | 100% | IC50 [2]: 9.2 µM; IC50 [3]: 2 µM; IC50 [4]: 151 µM; IC50 [5]: 240 µM
O=C(O[C@@H]1O[C@H](CO)[C@@H](O)[C@H](O)[C@H]1O)c1cc(O)c(O)c(O)c1 | 23.6% | 
O=c1c2cc(O)c(O)cc2oc2cc(O)c([C@@H]3O[C@H](CO)[C@@H](O)[C@H](O)[C@H]3O)c(O)c12 | 21.4% | 
